# From US20130302344A1, “METHODS AND MEDICAMENTS FOR THE TREATMENT OF GOUT OR PSEUDOGOUT” (TOPOTARGET SWITZERLAND SA, priority 2006, published 2013)
# Entries after “also recorded” stand apart in the source; their conditions may differ.
# Legend:
# [1] = test system: mouse peritoneal exudate cells; assay: IL-1β production by mouse peritoneal macrophages (ELISA); type: cell-based
# Description: (§1) BALB/C mice were intraperitoneally injected with a 4% solution of thioglycollate. Six days later, peritoneal exudate cells (PEC) were collected by washing the peritoneal cavity with phosphate buffer saline. Cells were distributed in wells of tissue culture 12 well plates (10^6 cells/well). Non-adherent cells were washed and adherent cells were treated. with 1 μg/ml of Ultrapure LPS (Invivogen) in the presence or the absence of 200 nM of 17-AAG (Invivogen). (a) After overnight culture, the supernatants were collected and used for determination of TNF by ELISA. (b, c) Fresh medium was added on the cells in the presence or the absence of 2 mM of ATP or 100 μg/ml MSU. After 5 hours, the supernatants were collected and IL-1β was determined by ELISA. (d) Mouse peritoneal macrophages were treated with 500 ng/ml of Ultrapure LPS (Invivogen) in the presence or the absence of 50 nM of 17-DMAG (Invivogen). 2 hours later, cells were stimulated with 500 μg/ml MSU. After 4 hours, the supernatants were collected and IL-1β was determined by ELISA. (e) Human blood monocytes were treated with 1 μg/ml of Ultrapure LPS (Invivogen) in the presence or the absence of graded doses of 17-DMAG (Invivogen). After overnight culture, cells were stimulated with 100 μg/ml MSU. After 6 hours, the supernatants were collected and IL-1β was determined by ELISA.
# Eight to twelve week-old mice of indicated genotypes were injected i.p. with 4% thioglycollate solution, and macrophages were collected by peritoneal lavage 3-6 days later. Cells were plated at the density of 7×10^5 cells in twelve-well dishes and. non-adherent cells were removed after 3 h. Cells were cultured in RPMI complemented with 10% FCS, sodium pyruvate, penicillin/streptomycin and L-glutamin. All cells were stimulated in OptiMEM medium as described above. Caspase-1 was analyzed using an antibody from Santa Cruz Biotechnology (se-514) and ASC using an antibody as described previously^34. The antibody against mouse IL-1β[…]was a gift from Roberto Solari, Glaxo. […]
# [2] = test system: mouse peritoneal exudate cells; assay: TNF production by LPS-treated mouse peritoneal exudate cells (ELISA); type: cell-based; settings: 200 nM, 1 μg/ml LPS overnight; FIG. 8a
# Description: as §1, with “2 hours later, cells were stimulated with 500 μg/ml MSU.” left out, “(e) Human blood monocytes were treated with 1 μg/ml of Ultrapure LPS (Invivogen) in the presence or the absence of graded doses of 17-DMAG (Invivogen). After overnight culture, cells were stimulated with 100 μg/ml MSU.” left out
# Eight to twelve week-old mice of indicated genotypes were injected i.p. with 4% thioglycollate solution, and macrophages were collected by peritoneal lavage 3-6 days later. […] Caspase-1 was analyzed using an antibody from Santa Cruz Biotechnology (se-514) and ASC using an antibody as described previously^34. […]
# human blood monocytes = assay: IL-1β production by MSU-stimulated human blood monocytes (ELISA); type: cell-based; settings: graded doses, LPS overnight, 100 μg/ml MSU 6 h; FIG. 8e
# Description: as §1
# [3] = test system: MSU-induced neutrophil recruitment; assay: MSU crystal-induced aseptic peritonitis, neutrophil recruitment (FACS); type: in vivo, mouse
# Description: Aseptic peritonitis was induced in female C57BL/6 mice by injection of 500 μg monosodium urate crystals (MSU) with PBS, 200 μg anakinra (Kineret, Amgen Inc., Thousand Oaks, USA), 200 μg anti-IL-1RI monoclonal antibody (BD Pharmingen, San Jose, USA), 200 μg anti-IL-1α monoclonal antibody (Biolegend, San Diego, USA), 200 μg anti-IL-1β monoclonal antibody ((Biolegend, San Diego, USA), or combination of 200 μg anti-IL-1α monoclonal antibody and 200 μg anti-IL-1β monoclonal antibody. After 6 h, mice were killed and the peritoneal cavity was washed with 10 ml of cold PBS. The lavage fluids were analyzed for neutrophil recruitment by FACS using the neutrophil markers CD11b and Gr1 (Ly-6G). Values are±s.e.m. of total neutrophil counts with 4-5 animals per group, Unpaired Students t test was used to calculate P value. […] The lavage fluids were analyzed for neutrophil recruitment by FACS using the neutrophil markers CD11b and Gr1 (Ly-6G), Values are±s.e.m. of total neutrophil counts with 4-5 animals per group. […] The lavage fluids were analyzed for neutrophil recruitment by FACS using the neutrophil markers CD11b and Gr1 (Ly-6G). […] The lavage fluids were analysed for PMN recruitment by FACS using the neutrophil marker Ly-6G and CD11b (BD Pharmingen).
# gout = assay: Case reports of patients with proven gout; type: in vivo, human; settings: for adverse effects of earlier gout treatments: patient history in cases 1-4, doses as stated per case; for response of gouty arthritis to earlier treatment: cases 3 and 4, prednisone 30 mg daily tapering over 7 days, colchicine 1 mg daily; for response of acute gouty arthritis / recurrence on follow-up: gout patients; for response of acute gouty arthritis: anakinra 100 mg daily for 2-3 days (cases 1-3); for recurrence on follow-up: one to two months after anakinra
# Description: Four patients with proven gout were treated with anakinra (Kineret).
# THP1 cells [4] = assay: IL-1β maturation in PMA-primed THP1 cells stimulated with crystals or ATP (Western blot); type: cell-based, human
# Description: a-c, THP1 cells were stimulated for 6 h with the indicated amounts/ml of MSU crystals (a), CPPD (b) or with 50 μg/ml of pure LPS, MSU, allopurinol crystals, CPPD crystals, diamond crystals, aluminum particles, zymosan, crude preparations of LPS, or 5 mM of extracellular ATP as indicated (c). Supernatants (SN) were analyzed for the presence of mature IL-1β, IL-18 or caspase-1, and cell extracts (Cell) for the presence of proIL-1β and proIL-18. d, human monocytes were stimulated with 50 μg/ml of the indicated crystals for 6 h and analyzed by Western blot for IL-1β activation or by ELISA for released. caspase-1 and IL-1β.
# THP1 cells were pre-treated with the P2X antagonist pyridoxal-phosphate-6-azophenyl-2′,4′-disulfonic acid (PPADS, Alexis) for 30 min and subsequently stimulated for 6 h with MSU crystals (50 μg/ml). Supernatants (SN) were analyzed for the presence of mature IL-1β and cell extracts (Cell) for the presence of proIL-1β.
# THP1 cells were stimulated with MSU, CPPD or ATP in the presence or absence of colchicine (colch). Maturation of IL-1β was analyzed by Western Blot.
# (§2) THP1 were stimulated for 3 h with 0.5 μM of PMA the day before stimulation as described^10. This treatment increases the phagocytic properties of the cells and induces a constitutive production of proIL-1β^33. Human monocytes were purified as described before^30. All cells were stimulated in OptiMEM medium as indicated. Human mature IL-1β was detected with a specific antibody directed. against the cleaved epitope (D116) from Cell Signalling, or with an Enzyme-linked immunoabsorbent assay (ELISA) from BD bioscience. TNF and IL-6 were detected by an ELISA from ImmunoTools and caspase-1 by an ELISA from Alexis. IL-18 was detected. with an antibody from MBL (D044-3) and. Caspase-1 with an antibody from Santa Cruz Biotechnology (sc-622), The antibody against human IL-1β[…] was a gift from Roberto Solari, Glaxo. z-YVAD-fmk was purchased from Alexis Biochemicals. IL-1ra (anakinra, Kineret) was from Amgen (thousand Oaks, USA).
# MSU-induced inflammation = settings: intravenous pretreatment; cited from earlier work
# [5] = oral; cited from earlier work
# THP1 cells [6] = assay: TNF-α production by stimulated THP1 cells (ELISA); type: cell-based, human; settings: FIG. 5a
# Description: (§3) a, THP1 cells were stimulated with MSU, CPPD or Zymosan (Zym) for the indicated, times in the presence or absence of the caspase-1 inhibitor zYVAD-fink. Supernatants were analyzed for TNF-α (gray bars) and IL-1β (black bars) production by ELISA. b, human monocytes were incubated with MSU or CPPD in the presence of two concentrations of IL-1Ra. TNF-α and IL-6 production was monitored by ELISA.
# as §2
# human monocytes = assay: TNF-α and IL-6 production by human monocytes incubated with MSU or CPPD (ELISA); type: cell-based; settings: two concentrations of IL-1Ra, FIG. 5b
# Description: as §3, §2
compound,measurement,setting,value
"C=CCNC1=C2C[C@@H](C)C[C@H](OC)[C@H](O)[C@@H](C)/C=C(\C)[C@H](OC(N)=O)[C@@H](OC)/C=C\C=C(/C)C(=O)NC(=CC1=O)C2=O [17-AAG, 17-(Allylamino)-17-demethoxygeldanamycin]",production of IL-1β by mouse macrophages stimulated by MSU crystals,"[1]; 200 nM, LPS overnight, 100 μg/ml MSU 5 h, FIG. 8c",almost completely inhibited
same,production of IL-1β by mouse macrophages stimulated by ATP,"[1]; 200 nM, LPS overnight, 2 mM ATP 5 h, FIG. 8b",almost completely inhibited
same,reduction of TNFα production,[2],less than 50%
"CO[C@H]1/C=C\C=C(/C)C(=O)NC2=CC(=O)C(NCCN(C)C)=C(C[C@@H](C)C[C@H](OC)[C@H](O)[C@@H](C)/C=C(\C)[C@@H]1OC(N)=O)C2=O [17-DMAG, 17-(Dimethylaminoethylamino)-17-demethoxygeldanamycin]",production of IL-1β by mouse macrophages stimulated by MSU crystals,"[1]; 50 nM, LPS 2 h, 500 μg/ml MSU 4 h, FIG. 8d",inhibited
same,production of IL-1β by human blood monocytes stimulated by MSU crystals,human blood monocytes,inhibited
same,neutrophil influx in response to MSU,"[3]; female BALB/C mice, 25 mg/kg intraperitoneally 1 h before 500 μg MSU, FIG. 14",reduced
Oc1ncnc2[nH]ncc12 [allopurinol],adverse effects of earlier gout treatments,gout,severe cutaneous reaction; also recorded: acute gout developed after the first dose; also recorded: induced flare-ups of arthritis
CCc1oc2ccccc2c1C(=O)c1cc(Br)c(O)c(Br)c1 [benzbromazone],adverse effects of earlier gout treatments,gout,renal stones
COc1cc2c(c(OC)c1OC)-c1ccc(OC)c(=O)cc1[C@@H](NC(C)=O)CC2 [colchicine],IL-1β activation by extracellular ATP,THP1 cells [4]; FIG. 6,did not affect
same,crystal-induced processing of IL-1β,"THP1 cells [4]; MSU or CPPD, pretreatment, FIG. 6",completely blocked
same,response of gouty arthritis to earlier treatment,gout,ineffective
same,adverse effects of earlier gout treatments,gout,rectal bleeding; also recorded: diarrhea
same,adverse effects of earlier gout treatments,gout; listed as Colchicine,intolerable diarrhea; also recorded: rapid onset of diarrhea
same,inflammation after intraarticular MSU injections,MSU-induced inflammation,greatly reduces inflammation
same,side effects limiting use,[5],nausea and abdominal pain
O=C(O)Cc1ccccc1Nc1c(Cl)cccc1Cl [diclofenac],adverse effects of earlier gout treatments,gout,gastrointestinal side effects including one episode of G-I hemorrhage
C[C@]12C=CC(=O)C=C1CC[C@@H]1[C@@H]2C(=O)C[C@@]2(C)[C@H]1CC[C@]2(O)C(=O)CO [prednisone],response of gouty arthritis to earlier treatment,gout,the arthritis remained active
COC(=O)C[C@H](NC(=O)[C@H](C)NC(=O)[C@@H](NC(=O)[C@H](Cc1ccc(O)cc1)NC(=O)OCc1ccccc1)C(C)C)C(=O)CF [zYVAD-fmk],MSU-induced IL-1β activation,"THP1 cells [4]; MSU crystals, 6 h, FIG. 1a",completely blocked
same,TNF-α production by the TLR2 agonist Zymosan,THP1 cells [6],without affecting
same,reduction of TNF-α production induced by MSU and CPPD,THP1 cells [6],more than 50%
"anakinra: IL-1 receptor type I (IL-1RI) antagonist, IL-1Ra also known as anakinra, marketed under the name Kineret",IL-6 production by human monocytes,human monocytes,significantly affected
same,TNF-α production by human monocytes,human monocytes,significantly affected
same,neutrophil influx,"[3]; female C57BL/6 mice, 500 μg MSU, 200 μg of each agent, 6 h, FIG. 12",almost entirely prevented
same,response of acute gouty arthritis,gout,complete resolution of arthritis by the second day; also recorded: responded rapidly
same,response of acute gouty arthritis,gout; listed as Anakinra,rapid reduction in joint pain over 48 h
same,response of acute gouty arthritis,gout; listed as Anankinra,rapid resolution of signs and symptoms of arthritis
same,recurrence on follow-up,gout,no recurrence of arthritis; also recorded: asymptomatic two months later
same,recurrence on follow-up,gout; listed as Anakinra,No acute flares
same,recurrence on follow-up,gout; listed as Anankinra,no further flare-ups
